The values that follow come from patent US9403830B2, “Inhibitors of leukotriene production” (Boehringer Ingelheim International GmbH, priority 2012, dated 2016).

Test [1] deals with LTB4 synthesis in human whole blood. The test is described as follows: human whole blood (HWB) assay, inhibition of LTB4 production. The note with it: heparinized human whole blood, calcimycin 20 μM stimulation, plasma LTB4. Type of test: cell-based. As to the method: The compounds of the invention are additionally tested in a human whole blood (HWB) assay to determine their ability to inhibit the synthesis of LTB4 in a cellular system. Compounds are combined with heparinized human whole blood and incubated for 15 minutes at 37° C. Calcimycin (20 μM final, prepared in phosphate-buffered saline, pH 7.4) is then added and the mixture is incubated for another 30 minutes at 37° C. The samples are centrifuged for 5 min at low speed (1500×g) and the plasma layer is removed. Plasma LTB4 concentrations are then measured using an antibody-based homogenous time-resolved fluorescence method (CisBio, Bedford, Mass.). In general, the preferred potency range (IC50) of compounds in the HWB assay is between 10 nM to 10 μM, the more preferred potency range is 10 nM to 1 μM, and the most preferred potency range is 10 nM to 100 nM.

In another test the target is T1, human LTA4 hydrolase (Homo sapiens, UniProt P09960).
T1 sequence (P09960 1-611): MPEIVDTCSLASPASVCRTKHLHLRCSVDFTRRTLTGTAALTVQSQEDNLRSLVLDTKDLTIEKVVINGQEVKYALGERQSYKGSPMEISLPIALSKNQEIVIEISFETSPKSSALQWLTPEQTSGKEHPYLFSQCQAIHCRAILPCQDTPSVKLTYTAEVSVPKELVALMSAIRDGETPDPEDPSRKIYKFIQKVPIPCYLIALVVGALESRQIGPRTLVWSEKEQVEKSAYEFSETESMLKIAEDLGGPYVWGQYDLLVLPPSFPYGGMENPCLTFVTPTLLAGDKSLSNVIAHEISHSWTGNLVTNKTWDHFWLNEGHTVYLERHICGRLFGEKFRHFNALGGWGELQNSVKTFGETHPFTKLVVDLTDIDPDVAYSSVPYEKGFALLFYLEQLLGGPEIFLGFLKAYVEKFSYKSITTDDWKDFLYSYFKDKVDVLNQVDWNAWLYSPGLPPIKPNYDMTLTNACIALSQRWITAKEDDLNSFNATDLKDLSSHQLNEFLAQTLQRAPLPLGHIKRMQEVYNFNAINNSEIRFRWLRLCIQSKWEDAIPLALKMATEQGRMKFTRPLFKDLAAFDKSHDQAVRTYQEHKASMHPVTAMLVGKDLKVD
The test is described as follows: LTA4H Enzyme assay (peptidase, Arg-AMC cleavage). Type of test: biochemical. The note with it: LTA4H enzyme 1 nM, Arg-AMC substrate 50 μM, room temperature 1 h, fluorescence 380/460 nm. Here is the method: The compounds of the invention are assessed for the ability to interact with human LTA4 hydrolase in an enzymatic assay that measures the ability of the enzyme to cleave the peptide bond of arginyl-aminomethylcoumarin (Arg-AMC). LTA4H Enzyme (1 nM final), Arg-AMC substrate (50 μM final), and compound are combined in a reaction buffer (50 mM Tris-HCl (pH 7.5), 100 mM KCl, 0.5% bovine serum albumin) at room temperature for 1 h. The formation of product is assessed by measuring the fluorescence of aminomethylcoumarin product (excitation wavelength 380 nm/emission wavelength 460 nm). In general, the preferred potency range (IC50) of compounds in the LTA4H Enzyme assay is between 0.1 nM to 10 μM, the more preferred potency range is 0.1 nM to 0.1 μM, and the most preferred potency range is 0.1 nM to 10 nM.

Broadly, the IC50 is the concentration that inhibits the measured activity by half. With `COCC(=O)N1CCN(Cc2ccc3cc(Oc4ccc(-c5ccn[nH]5)cn4)ccc3c2)CC1` [Example 1, 2-Methoxy-1-(4-{6-[5-(2H-pyrazol-3-yl)-pyridin-2-yloxy]-naphthalen-2-ylmethyl}-piperazin-1-yl)-ethanone], the IC50 in test [1] stood at 180 nM; against human LTA4 hydrolase, 0.63 nM.
The matching figures for `CC(=O)N1CCN(Cc2ccc3cc(Oc4ccc(-c5ccn[nH]5)cn4)ccc3c2)CC1` [Example 2, 1-(4-{6-[5-(2H-Pyrazol-3-yl)-pyridin-2-yloxy]-naphthalen-2-ylmethyl}-piperazin-1-yl)-ethanone]: 130 nM and 0.39 nM.
The corresponding values for `c1cc(-c2ccc(Oc3ccc4cc(CN5CCCC5)ccc4c3)nc2)[nH]n1` [Example 3, 5-(2H-Pyrazol-3-yl)-2-(6-pyrrolidin-1-ylmethyl-naphthalen-2-yloxy)-pyridine] are 120 nM and 0.34 nM.
The matching figures for `OC1CCN(Cc2ccc3cc(Oc4ccc(-c5ccn[nH]5)cn4)ccc3c2)CC1` [Example 4, 1-{6-[5-(2H-Pyrazol-3-yl)-pyridin-2-yloxy]-naphthalen-2-ylmethyl}-piperidin-4-ol]: 190 nM and 0.54 nM.
Take `NC(=O)C1CCN(Cc2ccc3cc(Oc4ccc(-c5ccn[nH]5)cn4)ccc3c2)CC1` [Example 5, 1-{6-[5-(2H-Pyrazol-3-yl)-pyridin-2-yloxy]-naphthalen-2-ylmethyl}-piperidine-4-carboxylic acid amide]: the figures for the IC50 (in test [1]; against human LTA4 hydrolase) were 220 nM and 0.46 nM, respectively.
The corresponding values for `CC(=O)NC1CCN(Cc2ccc3cc(Oc4ccc(-c5ccn[nH]5)cn4)ccc3c2)CC1` [Example 6, N-(1-{6-[5-(2H-Pyrazol-3-yl)-pyridin-2-yloxy]-naphthalen-2-ylmethyl}-piperidin-4-yl)-acetamide] are 210 nM and 0.37 nM.
The matching figures for `O=C1[C@@H](O)CCN1C1CCN(Cc2ccc3cc(Oc4ccc(-c5ccn[nH]5)cn4)ccc3c2)CC1` [Example 7, (S)-3-Hydroxy-1-(1-{6-[5-(2H-pyrazol-3-yl)-pyridin-2-yloxy]-naphthalen-2-ylmethyl}-piperidin-4-yl)-pyrrolidin-2-one]: 180 nM and 0.68 nM.
Regarding `CN(C)CC1CCc2cc(Oc3ccc(-c4ccn[nH]4)cc3)ccc2O1` (centres unmarked) [Example 8, dimethyl-{6-[4-(2H-pyrazol-3-yl)-phenoxy]-chroman-2-ylmethyl}-amine], the IC50 is 99 nM in test [1] and 0.35 nM at human LTA4 hydrolase.
The matching figures for `NC(=O)C1CCN(CC2CCc3ccc(Oc4ccc(-c5ccn[nH]5)cn4)cc3O2)CC1` (centres unmarked) [Example 9, 1-{7-[5-(2H-Pyrazol-3-yl)-pyridin-2-yloxy]-chroman-2-ylmethyl}-piperidine-4-carboxylic acid amide]: 1300 nM and 4.2 nM.
The matching figures for `O=C(CO)N1CCN(Cc2ccc3cc(Oc4ccc(-c5ccn[nH]5)cc4)ccc3n2)CC1` [Example 10, 2-hydroxy-1-(4-{6-[4-(2H-pyrazol-3-yl)-phenoxy]-quinolin-2-ylmethyl}-piperazin-1-yl)-ethanone]: 150 nM and 0.53 nM.
The corresponding values for `O=C1OCCN1C1CCN(Cc2ccc3cc(Oc4ccc(-c5ccn[nH]5)cn4)ccc3n2)CC1` [Example 11, 3-(1-{6-[5-(2H-pyrazol-3-yl)-pyridin-2-yloxy]-quinolin-2-ylmethyl}-piperidin-4-yl)-oxazolidin-2-one] are 180 nM and 0.65 nM.
As to `CCC(=O)N1CCN(Cc2ccc3cc(Oc4ccc(-c5ccn[nH]5)cc4)ccc3n2)CC1` [Example 12, 1-(4-{6-[4-(2H-pyrazol-3-yl)-phenoxy]-quinolin-2-ylmethyl}-piperazin-1-yl)-propan-1-one], the IC50 amounted to 190 nM in test [1] and 0.45 nM against human LTA4 hydrolase.
With `C[C@H](O)C(=O)N1CCN(Cc2ccc3cc(Oc4ccc(-c5ccn[nH]5)cc4)ccc3n2)CC1` [Example 13, (S)-2-hydroxy-1-(4-{6-[4-(2H-pyrazol-3-yl)-phenoxy]-quinolin-2-ylmethyl}-piperazin-1-yl)-propan-1-one], the IC50 amounted to 200 nM in test [1] and 0.59 nM against human LTA4 hydrolase.
The matching figures for `c1cc(-c2ccc(Oc3ccc4cc(CN5CCOCC5)nn4c3)cc2)[nH]n1` [Example 14, 2-morpholin-4-ylmethyl-6-[4-(2H-pyrazol-3-yl)-phenoxy]-pyrazolo[1,5-a]pyridine]: 310 nM and 1.2 nM.
The matching figures for `O=C(N1CCN(Cc2ccc3cc(Oc4ccc(-c5ccn[nH]5)cc4)ccc3n2)CC1)C1(O)CC1` [Example 15, (1-hydroxy-cyclopropyl)-(4-{6-[4-(2H-pyrazol-3-yl)-phenoxy]-quinolin-2-ylmethyl}-piperazin-1-yl)-methanone]: 810 nM and 2.4 nM.
The corresponding values for `O=C1OC[C@@H]2CN(Cc3ccc4cc(Oc5ccc(-c6ccn[nH]6)cn5)ccc4n3)CCN12` [Example 16, (S)-7-{6-[5-(2H-pyrazol-3-yl)-pyridin-2-yloxy]-quinolin-2-ylmethyl}-hexahydro-oxazolo[3,4-a]pyrazin-3-one] are 250 nM and 1.1 nM.
On to `O=S1(=O)CC2CC1CN2Cc1ccc2cc(Oc3ccc(-c4ccn[nH]4)cc3)ccc2n1` (centres unmarked) [Example 17, 2-(2,2-Dioxo-2-λ-6-thia-5-aza-bicyclo[2.2.1]hept-5-ylmethyl)-6-[4-(2H-pyrazol-3-yl)-phenoxy]-quinoline], for which the IC50 in test [1] amounted to 430 nM; on human LTA4 hydrolase, 1.1 nM.
Regarding `O=C1CCC2CN(Cc3ccc4cc(Oc5ccc(-c6ccn[nH]6)cn5)ccc4n3)CCN12` (centres unmarked) [Example 18, 2-{6-[5-(2H-pyrazol-3-yl)-pyridin-2-yloxy]-quinolin-2-ylmethyl}-hexahydro-pyrrolo[1,2-a]pyrazin-6-one], the IC50 turned out to be 580 nM in test [1] and 2 nM against human LTA4 hydrolase.
Take `c1cc(-c2ccc(Oc3ccc4nc(CN5CCCC5)ccc4c3)nc2)[nH]n1` [Example 19, 6-[5-(2H-Pyrazol-3-yl)-pyridin-2-yloxy]-2-pyrrolidin-1-ylmethyl-quinoline]: the IC50 turned out to be 70 nM in test [1] and 0.24 nM at human LTA4 hydrolase.
The corresponding values for `c1cc(-c2ccc(Oc3ccc4nc(CN5CCC6(COC6)C5)ccc4c3)nc2)[nH]n1` [Example 20, 2-(2-Oxa-6-aza-spiro[3.4]oct-6-ylmethyl)-6-[5-(2H-pyrazol-3-yl)-pyridin-2-yloxy]-quinoline] are 82 nM and 0.3 nM.
The matching figures for `c1cc(-c2ccc(Oc3ccc4nc(CN5CCC5)ccc4c3)nc2)[nH]n1` [Example 21, 2-Azetidin-1-ylmethyl-6-[5-(2H-pyrazol-3-yl)-pyridin-2-yloxy]-quinoline]: 86 nM and 0.22 nM.
For `c1cc(-c2ccc(Oc3ccc4nc(CN5CCCCCC5)ccc4c3)nc2)[nH]n1` [Example 22, 2-Azepan-1-ylmethyl-6-[5-(2H-pyrazol-3-yl)-pyridin-2-yloxy]-quinoline], the IC50 in test [1] came out at 89 nM; against human LTA4 hydrolase it was 0.36 nM.
The matching figures for `c1cc(-c2ccc(Oc3ccc4nc(CN5CCCCC5)ccc4c3)nc2)[nH]n1` [Example 23, 2-Piperidin-1-ylmethyl-6-[5-(2H-pyrazol-3-yl)-pyridin-2-yloxy]-quinoline]: 90 nM and 0.48 nM.
Take `CC(=O)N1CC2CCC(C1)N2Cc1ccc2cc(Oc3ccc(-c4ccn[nH]4)cn3)ccc2n1` [Example 24, 1-(8-{6-[5-(2H-Pyrazol-3-yl)-pyridin-2-yloxy]-quinolin-2-ylmethyl}-3,8-diaza-bicyclo[3.2.1]oct-3-yl)-ethanone]: the IC50 in test [1] came to 99 nM; on human LTA4 hydrolase it was 0.33 nM.
The corresponding values for `CNCc1ccc2cc(Oc3ccc(-c4ccn[nH]4)cn3)ccc2n1` [Example 25, Methyl-{6-[5-(2H-pyrazol-3-yl)-pyridin-2-yloxy]-quinolin-2-ylmethyl}-amine] are 110 nM and 0.5 nM.
